Entries after “also recorded” stand apart in the source; their conditions may differ. Square brackets hold non-standard residues; d marks the D form. Peptide text beside a SMILES is read from it.
What was measured:
small α-syn PFF seeds = assay: Protein quantification after centrifugation (precipitation of small α-syn PFF); format: physicochemical; conditions: as DLS samples (200 nM PFF + 500 nM SVD-1a), 0, 20, 72 h at 37 °C, centrifuged 21,000×g 30 min, Micro-BCA, n = 3
Protocol: Measurements were performed using a SpectroSize 300 131 (XtalConcepts, GE) instrument and a sample volume of 1 ml in a sealed quartz cuvette (Hellma Group, GE). Samples were incubated in PBS pH 7.4 at 37 °C under quiescent conditions. Prior to measurements, all samples were centrifuged at 21,000×g for 30 min at 4 °C to remove potential impurities from the solution. For time-dependent DLS measurements, data points were recorded every 60 s. Diffusion coefficients were obtained from analysis of the decay of the scattered intensity autocorrelation function and were used to determine apparent hydrodynamic radii via the Stokes-Einstein equation. Kinetic fitting for the degradation of small α-syn PFF seeds was performed with the “SVD-1a + small α-syn PFF” sample using the “single-phase exponential decay function” of GraphPad Prism 10 (GraphPad Software Inc., USA), considering only particle sizes in the range of 1–100 nm with an amplitude > 0.2. […] Protein quantification after centrifugation was performed by incubating identical samples as in the DLS measurements with additional compound and buffer controls in low-binding reaction tubes at 37 °C under quiescent conditions (n = 3). […] Protein quantification of pellet and supernatant was performed using a Micro-BCA kit following the manufacturer’s instructions (Thermo Fisher Scientific, USA). […]

α-syn monomer = assay: SDS–PAGE of fractionated de novo aggregation samples; format: biochemical; conditions: 10 µM α-syn, 5, 10, 20 µM SVD-1a, 7 days, silver staining
Protocol: For small PFF pre incubation with or without SVD-1a (Fig. 4) samples were pre-incubated at 37 °C and 600 rpm for 72 h in PBS pH 7.4 with 0.05% sodium azide using protein low binding reaction tubes in a thermos shaker (Eppendorf GmbH, GE). For de novo aggregation analysis, each replicate was pre-incubated in PBS pH 7.4 with 0.05% sodium azide in a 96-well non-binding half-area plate (Corning, USA) in a FLUOStar platereader (BMG labtech, GE) with 300 rpm continuous orbital shaking in between reads, adding one borosilicate bead per well (d = 3 mm, Hilgenberg, GE, n = 7). 10 µM α-syn monomer was incubated with or without 5, 10 or 20 µM SVD-1a for 7 days. […] The α-syn concentration of the samples was then quantified using an α-syn-specific kit (Human α-Synuclein (Colorimetric), 448607, BioLegend, USA). […]
Supplementary Fig. 20: SDS-PAGE analysis of de novo aggregation samples at incubation endpoint in presence or absence of SVD-1a. 10 µM α-syn monomer was incubated with or without 5, 10 or 20 µM SVD-1a for 7d in a 96-well non-binding half-area plate (Corning, USA) in a FLUOStar platereader (BMG labtech, GE) with 300 rpm continuous orbital shaking in between reads adding one borosilicate bead per well (d = 3 mm, Hilgenberg, GE, n = 7). […] Retentate and flow through samples were analyzed using SDS-PAGE with silver staining. […]

CC[C@@H](C)[C@@H](NC(=O)[C@@H](Cc1c[nH]cn1)NC(=O)[C@@H](CCC(=O)O)NC(=O)[C@@H](CCC(N)=O)NC(=O)[C@@H](Cc1c[nH]c2ccccc12)NC(=O)[C@@H](Cc1ccc(O)cc1)NC(=O)[C@H](NC(=O)[C@@H](CCC(=O)O)NC(=O)[C@@H](Cc1c[nH]cn1)NC(=O)[C@H](NC(=O)[C@H]1CCCN1C(=O)[C@@H](CC(C)C)NC(=O)[C@H](N)CCCNC(=N)N)[C@H](C)O)[C@H](C)O)C(=O)N[C@H](Cc1c[nH]c2ccccc12)C(=O)N[C@H](Cc1c[nH]cn1)C(=O)N[C@H](C)C(=O)N[C@H](CCCNC(=N)N)C(=O)N[C@H](CCCNC(=N)N)C(=O)N[C@H](CCCNC(=N)N)C(=O)N[C@H](CCCNC(=N)N)C(=O)N[C@H](CCCNC(=N)N)C(N)=O [SVD-1a] (H-[dR][dL][dP][dT][dH][dE][dT][dY][dW][dQ][dE][dH][dI][dW][dH][dA][dR][dR][dR][dR][dR]-NH2)
precipitation of small α-syn PFF seeds (small α-syn PFF seeds): did not lead to precipitation of these species
aggregate band in retentate / shift to flow-through (α-syn monomer): a progressive shift of α-syn from the retentate to the flow-through is observed; also recorded: the aggregate band intensity was substantially diminished

— PMC12454639, “Direct disassembly of α-syn preformed fibrils into α-syn monomers by an all-D-peptide” (NPJ Parkinson's Disease, 2025)
